Test results from US20160287613A1, “SALICYLATES FOR USE IN THE TREATMENT OF CANCER” (priority 2013, published 2016).
Entries after “also recorded” stand apart in the source; their conditions may differ.

What was measured:
[1] = system: RT 112 cancer cells; test: Proliferation, [3H]-TdR (3H-thymidine) incorporation assay; type: cell-based, human; conditions: FIG. 2a
Protocol: The human bladder tumor cell line RT112 or the human chronic myeloid leukemia cell line K562 were purchased from DKFZ Tumorzell- und datenbank (Institut für experimentelle Pathologie, Heidelberg, FRG) or DSM (Deutsche Sammlung von Mikroorganismen und Zellkulturen GmbH, Braunschweig, FRG) supplemented with 2 mM L-glutamine (BIOCHROM, Berlin, FRG), 1% NEAE (BIOCHROM), 10% heat-inactivated fetal calf serum (BIOCHROM), 100 U/ml penicillin and 50 μg/ml Streptomycin (BIOCHROM) at 37 oc and 5% co2. Only mycoplasma-free cell cultures were used; this was frequently tested using a specific detection kit (BOEHRINGER MANNHEIM, Mannheim, FRG). The influence of cytotoxic molecules on the proliferation of RT112 tumor cells was quantified by the measurement of the incorporated tritiated thymidine ([^3H]-TdR) into the cellular DNA of the tumor cells by liquid scintillation counting (LSC). In brief, RT112 cells are harvested, washed twice and re-suspended in culture media (2.5×10^5 /ml). 100 μl/well of the RT112 cell suspension were seeded into 96 well microtiter plates (BECTON DICKINSON) and incubated over night at 37 ° C. and 5% CO2. The supernatant was replaced by 90 μl pH-adjusted culture medium (pH 6.0-7.4) and 10 μl of the solution of preferred substances or 10 μl/well pH-adjusted culture medium alone (control). The cells were incubated for various time periods at 37° C. and 5% CO2. Thereafter, cells were washed twice and re-incubated in fresh pH-adjusted culture medium. And pulsed for 24 h by the addition of 23.125 kBq [^3]-TdR/well (925 kBq/ml, AMERSHAM, Braunschweig, FRG). After freezing and thawing, radioactive DNA of the cultures were transferred to glass fiber filters with an automatic cell harvester (PHARMACIA). The incorporated radioactivity was measured in a liquid scintillation counter (PHARMACIA).

[2] = system: bladder cancer cell line RT 112; test: Lactate transport (export): enzymatic determination of lactate in supernatants at 340 nm; type: cell-based, human; conditions: RT 112, 0.2 mM albumin, pH 6.5 to 7.4, FIG. 1a/b
Protocol: The human bladder tumor cell line RT112 or the human chronic myeloid leukemia cell line K562 were purchased from DKFZ Tumorzell- und datenbank (Institut für experimentelle Pathologie, Heidelberg, FRG) or DSM (Deutsche Sammlung von Mikroorganismen und Zellkulturen GmbH, Braunschweig, FRG) supplemented with 2 mM L-glutamine (BIOCHROM, Berlin, FRG), 1% NEAE (BIOCHROM), 10% heat-inactivated fetal calf serum (BIOCHROM), 100 U/ml penicillin and 50 μg/ml Streptomycin (BIOCHROM) at 37 oc and 5% co2. Only mycoplasma-free cell cultures were used; this was frequently tested using a specific detection kit (BOEHRINGER MANNHEIM, Mannheim, FRG). Qualitative, Enzymatic Determination of Lactate in Supernatants of RT112 Cells at 340 nm RT112 cells were harvested, washed twice and re-suspended in culture media to yield a density of 2×10^5/ml. 500 μl/well of the RT112 cell suspension were seeded into 24 well microtiter plates (BD) and incubated over night at 37° C. and 5% C˜. The Supernatant was replaced by 450 pl pH-adjusted culture medium (pH 6.0-7.4) and 50 111 of the solution of preferred substances or 500 111/well pH-adjusted culture medium alone (control). Again, the cells were incubated for 24 hat 37° C. and 5% CO2. The measurement of lactate in the supernatants at 340 nm (PERKIN-ELMER, Lambda 17. UV-VIS Spectrophotometer, Überlingen, FRG) was performed according to the manufacturer's instructions (SIGMA DIAGNOSTICS, Deisenhofen, FRG; Lactate: Quantitative, Enzymatic Determination of Lactate in Whole Blood at 340 nm (Procedure No. 826-UV)).

[3] = system: cancer cells; test: Patient tests with high ASA doses; type: in vivo, human; conditions: high ASA doses of 90-120 mg/kg bodyweight
Protocol: But in the course of tests it became apparent how to artificially activate the immune system to be conditioned for killing cancer cells in basic environment. The “protection factor” also can be eliminated by the administration of high ASA doses of between 90-120 mg/kg bodyweight of the patient. […] The administered doses that provide this effect are between 90-120 mg/kg bodyweight of the patient of ASA.

Row | Compound | proliferation (3H-thymidine incorporation) vs control ([1]; ASA at 1 mM and 2 mM, pH 6.5-7.4, 0.2 mM albumin) | lactate efflux (export) compared to the Control [2] | "protection factor" of cancer cells against immune attack [3] | proliferation of cancer cells [3] | proliferation (3H-thymidine incorporation) vs control ([1]; above pH 7.1, 0.2 mM albumin) | proliferation (3H-thymidine incorporation) vs control ([1]; up to pH 7.1, 0.2 mM albumin)
1 | CC(=O)Oc1ccccc1C(=O)O [ASA, acetylsalicylic acid] | appreciable enhancement of proliferation | produce stimulation of lactate export all over the pH range; also recorded: accelerate the lactate efflux all over the pH range from pH 6.5 to 7.4 | eliminated | proliferation was stopped |  | 
2 | O=C(O)c1cc(-c2ccc(F)cc2F)ccc1O [Diflunisal, 5-[2,4-difluorophenyl]-salicylic acid] |  | produce stimulation of lactate export all over the pH range; also recorded: accelerate the lactate efflux all over the pH range from pH 6.5 to 7.4 |  |  | produces enhancement | inhibits proliferation slightly
3 | Nc1ccc(C(=O)O)c(O)c1 [PAS, 4-aminosalicylic acid] |  | accelerate the lactate efflux all over the pH range from pH 6.5 to 7.4 |  |  |  | 
